Laboratory results reported in PMC8704709, “Improved Anticancer Activities of a New Pentafluorothio-Substituted Vorinostat-Type Histone Deacetylase Inhibitor” (Pharmaceuticals, 2021).

Legend:
SMZ1 cells = test: IC50 by Annexin-V/7AAD dual staining, flow cytometry; assay type: cell-based; settings: Homo sapiens, as determined after 48 h, means ± SEM, n ≥ 3, read-out: Growth inhibitory activity IC50, SMZ1
Description: Stock solutions (10 mM) prepared by dissolution in DMSO were stored at −20 °C. Working solutions were always freshly prepared before each experiment by dilution of stock solution with medium. The final DMSO concentration never exceeded 0.25%. Treatment-induced changes in cell number were determined by crystal violet (N-hexamethylpararosaniline from Sigma Aldrich) staining. 1000 cells/well (DU145) or 1500 cells/well (Hep-G2) were seeded in 96-well plates and maintained for adherence in an incubator (37 °C, 5% CO2, humidified atmosphere) for 48 h prior to the beginning of the treatment. […] Thereafter, the cells were fixed with 1% glutaraldehyde and stained with 0.1% crystal violet. The unbound dye was removed by rinsing with water. Bound crystal violet was solubilized with 0.2% Triton X-100 (Sigma-Aldrich). Light extinction of crystal violet, which increases linearly with the cell number, was analyzed at 570 nm using an ELISA-Reader (Dynex Technologies, Denkendorf, Germany). For T-cell leukemia/lymphoma cell lines apoptosis was determined using dual staining for Annexin-V and 7AAD via flow cytometry.

[1] = system: caspase-3 activity in DU145 cells; test: Apoptosis-specific caspase-3 activation (AC-DEVD-AMC cleavage); assay type: cell-based, human; settings: 24 h treatment, 1–10 µM
Description: (§1) Changes in caspase-3 activity were measured by the cleavage of the fluorogenic substrate AC-DEVD-AMC (EMD Millipore, Billerica, MA, USA), as described previously. […] Subsequently, the lysates were incubated for 1 h at 37 °C with a substrate solution containing 20 μg/mL AC-DEVD-AMC, 20 mM HEPES, 10% glycerol and 2 mM DTT at pH 7.5.

[2] = system: caspase-3 activity in Hep-G2 cells; test: as above; assay type: cell-based, human; settings: 24 h treatment, 1–10 µM
Description: as §1

Hep-G2 cells [3] = test: Unspecific cytotoxicity (LDH release); assay type: cell-based, human; settings: 1–10 µM, 3 and 24 h
DU145 cells [4] = test: Western blot in DU145 cells (acetyl-H3, PARP, EGFR, P-mTOR); assay type: cell-based, human; settings: 24 h
Description: (§2) Western blots were performed as described earlier. Cells were seeded in 100 mm petri dishes, grown to almost confluency, treated for 24 h, washed and frozen, followed by lysis with RIPA Buffer, added with one cOmplete™ Mini protease Inhibitor tablet/10 mL (Roche), and quantification with Pierce^TM BCA Protein Assay Kit (Thermo Fisher Scientific). Thereafter protein levels were normalized to untreated controls so equal protein loading of 20 µg/lane. Laemmli Buffer and β-mercaptoethanol were added before probes were desaturated at 96 °C for 10 min. First, 7.5% or 12% SDS gels (Biorad, Munich, Germany) were loaded with proteins and electrophoresis was done. Thereafter, proteins were transferred to activated polyvinylidene difluoride membranes (PVDF) by electroblotting. Finally, the membranes were blocked with 1% BSA and incubated with primary antibodies over night at 4 °C.
(§3) Blots were washed three times with 1% TBS-Tween and incubated with anti-mouse or anti-rabbit peroxidase-coupled anti-IgG secondary antibodies (1:5000–1:10,000) at room temperature for 60 min. Subsequently, antibody bondage was illustrated using Clarity and Clarity Max ECL Western Blotting Substrates (Biorad, Munich, Germany) for detection and Celvin-S developer (Biostep, software SnapAndGo Vs 1.8.1) for development. […] Values were normalized to β-actin expression, which served as a loading control and compared to untreated control expressions which was set at 1. The mean ± SEM of the relative values to control are illustrated with Graph Pad Prism 8.

DU145 cells [5] = test: Unspecific cytotoxicity (LDH release); assay type: cell-based, human; settings: 1–10 µM, 3 and 24 h
Description: To exclude unspecific cytotoxicity as the driving mode of action for antiproliferative effects, the release of lactate dehydrogenase (LDH) from DU145 cells was determined after 3 h and 24 h of treatment using the Cytotoxicity Detection Kit PLUS LDH (Roche Diagnostics GmbH, Mannheim, Germany). The assay was performed as described earlier. Cytotoxicity was determined by subtracting the percentage of LDH release into the supernatant under control conditions of those from treated samples. Measurements were performed in duplicate in n = 3 independent experiments and mean percentage changes ± SEM as compared to controls are shown.

Hep-G2 cells [6] = test: Cytosolic ROS formation (CellROX Orange fluorescence microscopy); assay type: cell-based, human; settings: 6–24 h
Description: (§4) Untreated cells incubated with 1.6 mM H2O2 for 30 min served as positive controls. CellROX® Orange reagent (1 µM) was applied, when adding the test compounds. Formation of ROS was measured after 3 h, 6 h, 12 h (not shown) and 24 h using ZOE™ Fluorescent Cell Imager (Biorad, Munich, Germany). n = 3 independent experiments performed in triplicate for each condition.

DU145 cells [7] = test: as above; assay type: cell-based, human; settings: 6–24 h
Description: as §4

Hep-G2 cells [8] = test: Western blot in Hep-G2 cells (acetyl-H3, Apaf-1, Bcl-2); assay type: cell-based, human; settings: 24 h
Description: as §2, with “°C. […] Only the Jurkat cells had already a high level of α-tubulin in untreated cells and, thus, drug-induced changes were not detectable in these cells.” for “°C.”
as §3

O=C(CCCCCCC(=O)Nc1ccccc1)NO [SAHA, suberoylanilide hydroxamic acid, reference compound]
IC50 (SMZ1 cells): 2870 ± 330 nM | caspase-3 activation [1]: comparable caspase-3 inductions | caspase-3 activation [2]: comparable caspase-3 inductions | LDH release (unspecific cytotoxicity) (Hep-G2 cells [3]): no relevant induction of unspecific cytotoxicity | EGFR protein expression (DU145 cells [4]): pronounced and significant suppression in the expression of the EGFR | acetylated histone H3 level (DU145 cells [4]): dose-dependent rise of H3 acetylation | LDH release (unspecific cytotoxicity) (DU145 cells [5]): no relevant induction of unspecific cytotoxicity | cytosolic ROS formation (Hep-G2 cells [6]): much weaker ROS increase | cytosolic ROS formation (DU145 cells [7]): much weaker ROS increase | acetylated histone H3 level (Hep-G2 cells [8]): dose-dependent rise of H3 acetylation
